Assay results: article PMC7284125, “Identification of annotated bioactive molecules that impair motility of the blood fluke Schistosoma mansoni” (International Journal for Parasitology: Drugs and Drug …, 2020)
Like-named read-outs stand apart in the source and are kept apart here.

Experiments:
[1] = test system: S. mansoni schistosomulae; assay: Motility assay on schistosomulae (pixel displacement, relative to DMSO control); assay type: cell-based, Schistosoma mansoni; conditions: for activity at 1 µM: Schistosoma mansoni, read-out: Fractional motility; for motility phenotype in words: after 24 h exposure
Description: Puerto Rican strain Biomphalaria glabrata snails infected with S. mansoni were kindly provided by Dr. Fred Lewis (Biomedical Research Institute and BEI Resources, MD, USA). Schistosomulae were obtained by exposing six to eight weeks-old snails to continuous light for 2 h at 32 °C. The resulting suspension of cercaria was then mechanically transformed as described ([Lewis, 2001]) and cultured in Opti-MEM/antibiotics (Thermo Fisher Scientific, Waltham, MA) containing 100 μg/mL streptomycin and 100 units/ml penicillin supplemented with 5% fetal bovine serum (FBS; Thermo Fisher). Parasite cultures were incubated at 37 °C with 5% CO2 for at least 10 days with no apparent loss of viability. At this point, animals with internal dark granulations and with no observable body contraction/relaxation cycles were considered dead.
(§1) Schistosomulae (200/well) and adult parasites (unpaired worms) were maintained in 300 μL OPTI-MEM with 5% dialyzed FBS (without antibiotics) and exposed to compounds at 1 and 10 μM for 24 h. A kinetic assay consisting of 1, 3, 6 and 12 h incubation times was performed on selected hits by motility monitoring using a stereo microscope (SMZ1270, Nikon) for adults and an inverted microscope for schistosomulae (eclipse TE2000-U, Nikon) connected to a monochrome camera (DS-Qi2, Nikon) for image acquisition. Images were recorded at a rate of 10 frames/s for a period of 1 min and videos were analyzed using ImageJ software (version 1.41, NIH, USA). Parasite movement quantification and data analysis protocols were applied using the pixel displacement method ([Patocka et al., 2014]; [Rashid et al., 2015]) and compared to control parasites treated with DMSO. Parasites were then washed several times in Opti-MEM, 5% FBS and incubated up to an additional three days (schistosomulae) or five days (adult worms) at 37 °C, 5% CO2 and motility was recorded as described above.

S. mansoni adult worms = assay: Motility assay on adult parasites (pixel displacement, relative to DMSO control); assay type: cell-based, Schistosoma mansoni; conditions: for Fractional motility: 10 μM
Description: Adult parasites were collected from 40 day-old female CD1 mice (Charles River) previously inoculated by the tail infection method ([Lewis, 2001]). Six weeks post-infection, mice were sacrificed, and adult worms extracted after perfusion of in the hepatic portal vein and mesenteric venules ([Lewis, 2001]). Animal procedures were reviewed and approved by the Facility Animal Care Committee of McGill University (Protocol No. 3346) and were conducted in accordance with the guidelines of the Canadian Council on Animal Care.
as §1

[2] = test system: S. mansoni schistosomulae; assay: Phenotypic primary screen assay on schistosomulae (phenotype; viability by methylene blue dye exclusion); assay type: cell-based; conditions: Schistosoma mansoni
[3] = test system: S. mansoni schistosomulae; assay: as above; assay type: cell-based, Schistosoma mansoni; conditions: three-day-old schistosomulae, 10 μM, 24 h; estimated 5 days post compound exposure
Description: Puerto Rican strain Biomphalaria glabrata snails infected with S. mansoni were kindly provided by Dr. Fred Lewis (Biomedical Research Institute and BEI Resources, MD, USA). Schistosomulae were obtained by exposing six to eight weeks-old snails to continuous light for 2 h at 32 °C. […] At this point, animals with internal dark granulations and with no observable body contraction/relaxation cycles were considered dead.
Schistosomulae were monitored under a stereo microscope (SMZ1270, Nikon). Phenotypic observations were made by analyzing schistosomulae, 24 h after drug addition to assess any immediate effect and five days post-compound exposure to observe long-term impacts on both the movement and overall body shape in comparison to control animals exposed to DMSO only.

[4] = schistosomulae, 1h exposure, read at D1, 10 µM
[5] = schistosomulae, 1h exposure, read at D5, 10 µM
[6] = schistosomulae, 3h exposure, read at D1, 10 µM
[7] = schistosomulae, 3h exposure, read at D5, 10 µM
[8] = schistosomulae, 6h exposure, read at D1, 10 µM
[9] = schistosomulae, 6h exposure, read at D5, 10 µM
[10] = schistosomulae, secondary screen, 24h exposure, read at D1, 1 µM
[11] = schistosomulae, secondary screen, 24h exposure, read at D1, 10 µM
[12] = schistosomulae, secondary screen, 24h exposure, read at D5, 10 µM
[13] = secondary screen, D1, Female adult worms
[14] = secondary screen, D1, Male adult worms
[15] = secondary screen, D5, Female adult worms
[16] = secondary screen, D5, Male adult worms
[17] = three-day-old schistosomulae, 10 μM, 24 h, calculated 5 days post compound exposure, read-out: Viability (%)
[18] = 120 h, schistosomulae, secondary screen, 24h exposure, read at D5, 1 µM
[19] = Selleckchem customized library secondary screen, 24h, D1, 10 µM
[20] = Selleckchem customized library secondary screen, 24h, D5, 10 µM

Row | SMILES | Fractional motility [1, 11] | Fractional motility [1, 12] | Fractional motility (S. mansoni adult worms; [13]) | Fractional motility (S. mansoni adult worms; [14]) | Fractional motility (S. mansoni adult worms; [15]) | Fractional motility (S. mansoni adult worms; [16]) | viability at 10 µM [2, 17] | Phenotype [3] | activity at 1 µM [1, 18] | activity at 1 µM [1, 10] | other results
1 | COC(=O)C1=CCCN(C)C1 [Arecoline] | -0.93 | 1.49 | -0.92 | -0.79 | -0.72 | -0.0374 | 96.5% | round body, blebbing | – | – | Fractional motility ([1]; Arecoline and analogs, 24h, D1, 10 µM): -0.93; Fractional motility ([1]; Arecoline and analogs, 24h, D5, 10 µM): 1.49; activity at 1 µM ([1]; 120 h, Arecoline and analogs, 24h, D5, 1 µM): 122%; activity at 1 µM ([1]; Arecoline and analogs, 24h, D1, 1 µM): -93%; Fractional motility [1, 4]: -0.93; Fractional motility [1, 5]: -0.87; Fractional motility [1, 6]: -0.70; Fractional motility [1, 7]: -0.72; Fractional motility [1, 8]: -0.86; Fractional motility [1, 9]: -0.49; motility phenotype in words ([1]; schistosomulae): short term, pronounced paralysis; Fractional motility [1, 10]: -0.93; Fractional motility ([1]; schistosomulae, secondary screen, 24h exposure, read at D5, 1 µM): 1.22; Fractional motility (S. mansoni adult worms; Arecoline and analogs, D1, Female adult worms): -0.92; Fractional motility (S. mansoni adult worms; Arecoline and analogs, D1, Male adult worms): -0.79; Fractional motility (S. mansoni adult worms; Arecoline and analogs, D5, Female adult worms): -0.72; Fractional motility (S. mansoni adult worms; Arecoline and analogs, D5, Male adult worms): -0.0374; motility phenotype in words (S. mansoni adult worms; adults, after 24 h exposure): nearly complete paralysis
2 | CNCc1ccc(C)c(NC(=O)c2ccc(Nc3nc(-c4ccccc4)c4ccccc4n3)cc2)c1 [BMS-833923] | 10.40 | -0.90 | -0.84 | -0.59 | -0.64 | 0.14 | 32.5% | big, granulated | -48% | 10% | –
3 | CN(C)CC/C=C1/c2ccccc2Sc2ccc(Cl)cc21 [Chlorprothixene] | – | – | 2.18 | 2.53 | 0.23 | 0.16 | 99% | elongated | – | – | activity at 1 µM ([1]; 120 h, Selleckchem customized library secondary screen, 24h, D5, 1 µM): 207%; Fractional motility [1, 19]: 73.31; Fractional motility [1, 20]: 9.20; motility phenotype in words ([1]; schistosomulae): high levels of hypermotility
4 | CCN(CC)CCOc1ccc(C(=C(Cl)c2ccccc2)c2ccccc2)cc1 [Clomifene] | 1.47 | 0.15 | -0.44 | – | -0.03 | -0.17 | 100% | big, granulated | 49% | 12% | –
5 | CN1CCN(C2=Nc3cc(Cl)ccc3Nc3ccccc32)CC1 [Clozapine] | 23.43 | -0.13 | 2.39 | 2.19 | -0.70 | 0.45 | 98% | elongated | 121% | 625% | –
6 | C=C1C(=O)O[C@@H]2/C=C(\C)CC/C=C(\C)CC[C@@H]12 [Costunolide] | -0.92 | -0.94 | -0.10 | – | -0.83 | – | 1.5% | big, granulated | 16% | -57% | Fractional motility [1, 4]: -0.77; Fractional motility [1, 5]: -0.29; Fractional motility [1, 6]: 0.34; Fractional motility [1, 7]: 1.03; Fractional motility [1, 8]: 2.25; Fractional motility [1, 9]: -0.56; motility in extended assay with reduced incubation times, in words ([1]; three-day old schistosomulae, incubation 1 h, 3 h, 6 h): did not exhibit a significant change before the 24 hr incubation cut-off
7 | CN(C)[C@@H](CCOc1cccc2ccccc12)c1ccccc1 [Dapoxetine] | – | – | 2.14 | 2.05 | -0.24 | -0.50 | 97.5% | elongated, granulated | – | – | activity at 1 µM ([1]; Selleckchem customized library secondary screen, 24h, D1, 1 µM): 253%; Fractional motility [1, 19]: 69.58; Fractional motility [1, 20]: 15.51
8 | NC(=O)C(c1ccccc1)(c1ccccc1)[C@@H]1CCN(CCc2ccc3c(c2)CCO3)C1 [Darifenacin] | -0.70 | 0.35 | 1.90 | 3.54 | -0.69 | -0.23 | – | elongated, granulated | -59% | -60% | viability at 10 µM [2]: 98.5%
9 | CN(C)CCC[C@@]1(c2ccc(F)cc2)OCc2cc(C#N)ccc21 [Escitalopram] | 5.42 | 0.71 | 2.54 | 6.67 | 0.95 | 0.26 | 98% | abnormal morphology | 16% | 361% | –
10 | C[C@]12CC[C@@H]3c4ccc(O)cc4CC[C@H]3[C@@H]1CC[C@@H]2O [Estradiol] | 2.93 | 0.31 | -0.35 | 0.83 | 0.13 | 0.26 | 98% | blebbing | 23% | 87% | –
11 | CCCCCCCCc1ccc(CCC(N)(CO)CO)cc1 [Fingolimod] | 2.04 | -1.00 | -0.39 | 0.65 | -0.09 | -0.15 | 0% | dark, granulated | 151% | 180% | –
12 | CNCCC(Oc1ccc(C(F)(F)F)cc1)c1ccccc1 (stereo not drawn) [Fluoxetine] | 15.72 | 0.95 | 1.96 | 2.26 | 0.45 | -0.0243 | 98.5% | elongated | 105% | – | –
13 | COCCCC/C(=N\OCCN)c1ccc(C(F)(F)F)cc1 [Fluvoxamine] | 10.49 | 3.18 | 1.69 | 4.13 | 0.13 | 0.22 | 97% | elongated | 99% | 812% | –
14 | C#C[C@]1(O)C=C[C@H]2[C@@H]3CCC4=CC(=O)CC[C@@H]4[C@H]3CC[C@@]21CC [Gestodene] | 4.27 | -0.32 | 1.24 | 3.68 | – | – | 98% | granulated | -29% | 51% | –
